This passage reports logP and logD results from ChEMBL document CHEMBL2163255, “Zwitterions can be predominant in membrane penetration of drugs: experimental proof” (J Med Chem, 2012).

Each structure is given as a SMILES string.

Common to all, as to type: physicochemical
The nature of series [1]: Octanol-water partition coefficient, log P of noncharged form of compound at 0.15 M ionic strength by stir flask method.
A short description of series [2]: Octanol-water distribution coefficient, log D of the compound at pH 0.82 by stir flask method.
The nature of series [3]: Octanol-water distribution coefficient, log D of the compound at pH 4.96 by stir flask method.
A short description of series [4]: Octanol-water partition coefficient, log P of zwitter ionic form of compound at 0.15 M ionic strength by stir flask method.
Series [5] can be described thus: Octanol-water distribution coefficient, log D of the compound at pH 13.18 by stir flask method.
Series [6] in a line: Octanol-water distribution coefficient, log D of the compound at pH 5.4 by stir flask method.

With `CCOC(=O)C1=C[C@]2(CC)CCCN3CCc4c(n1c1ccccc41)[C@H]32`, the logP in series [1] worked out at 4.75. In series [2], the logD was found to be 0.9.
In series [1], `CCOC(=O)C1=C[C@]2(CC)CCCN3CCc4c(n1c1ccccc41)[C@@H]32` [VINPOCETINE] returned a logP of 4.45. Also, in series [2], the logD is 0.94.
For the compound `CC[C@@]12C=C(C(=O)O)n3c4c(c5ccccc53)CCN(CCC1)[C@@H]42`, the logP in series [1] was 3.98; in series [4], -0.22. Further, the results for the log distribution coefficient (logD) in series [3], in series [5] and in series [2] were -0.14, 0.21 and 0.13, respectively.
Consider `CC[C@@]12C=C(C(=O)O)n3c4c(c5ccccc53)CCN(CCC1)[C@H]42`, for which the logP in series [1] is 3.46; in series [4] it was -1.03. Moreover, the logD was -0.97 in series [6], -0.07 in series [5] and -0.05 in series [2].

Usually logP stands for the decadic logarithm of the partition coefficient of the neutral form, usually between octanol and water. A lower logP goes with a more hydrophilic compound. The logD is the decadic logarithm of the distribution of all forms, ionised or not, between an organic phase and buffer at a given pH. A high value points to a more lipophilic compound.
